Reference: the supplement of paper PMC4862054

Legend:
Details in all cases: incubation time: 72 h
MDA-MB-453 = test: drug sensitivity score (DSS), CellTiter-Glo (DSS (AUC-based score)); higher = stronger drug effect (viability inhibition or cytotoxicity); extreme values may be limits of the assay
How it was run: (§1)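 For 72 h, breast cancer cell lines seeded at 20 µl suspension per well in 384-well plates were incubated with compound at 5 concentrations in 10-fold steps spanning a 10,000-fold range that differed by compound. The first reading was CellTox Green fluorescence at 485/520 nm, and the second was CellTiter-Glo luminescence after 10 min at room temperature. Both were normalised per plate to 0.1 % DMSO and a positive kill control, and the drug sensitivity score was obtained from the area under the fitted dose-response curve.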

SK-BR-3 = test: as above
How it was run: as §1

HDQ-P1 = test: as above
How it was run: as §1

MDA-MB-468 [1] = test: as above
How it was run: as §1

HCC1937 [2] = test: as above
How it was run: as §1

MFM-223 = test: as above
How it was run: as §1

HCC1143 [3] = test: as above
How it was run: as §1

BT-549 = test: as above
How it was run: as §1

CAL-148 = test: as above
How it was run: as §1

MDA-MB-436 [4] = test: as above
How it was run: as §1

MDA-MB-231 = test: as above
How it was run: as §1

MCF-10A [5] = test: as above
How it was run: as §1

Hs578T = test: as above
How it was run: as §1

CAL-51 = test: as above
How it was run: as §1

CAL-85-1 [6] = test: as above
How it was run: as §1

BT-474 [7] = test: as above
How it was run: as §1

DU-4475 = test: as above
How it was run: as §1

CAL-120 [8] = test: as above
How it was run: as §1

HCC1599 = test: as above
How it was run: as §1

MDA-MB-468 [9] = test: drug sensitivity score (DSS), CellTox Green (DSS (AUC-based score)); higher = stronger drug effect (viability inhibition or cytotoxicity); extreme values may be limits of the assay
How it was run: as §1

HCC1937 [10] = test: as above
How it was run: as §1

HCC1143 [11] = test: as above
How it was run: as §1

MDA-MB-436 [12] = test: as above
How it was run: as §1

MCF-10A [13] = test: as above
How it was run: as §1

CAL-85-1 [14] = test: as above
How it was run: as §1

BT-474 [15] = test: as above
How it was run: as §1

CAL-120 [16] = test: as above
How it was run: as §1

SMILES	drug sensitivity score (MDA-MB-453)	drug sensitivity score (SK-BR-3)	drug sensitivity score (HDQ-P1)	drug sensitivity score (MDA-MB-468 [1])	drug sensitivity score (HCC1937 [2])	drug sensitivity score (MFM-223)	drug sensitivity score (HCC1143 [3])	drug sensitivity score (BT-549)	drug sensitivity score (CAL-148)	drug sensitivity score (MDA-MB-436 [4])	drug sensitivity score (MDA-MB-231)	drug sensitivity score (MCF-10A [5])	drug sensitivity score (Hs578T)	drug sensitivity score (CAL-51)	drug sensitivity score (CAL-85-1 [6])	drug sensitivity score (BT-474 [7])	drug sensitivity score (DU-4475)	drug sensitivity score (CAL-120 [8])	drug sensitivity score (HCC1599)	drug sensitivity score (MDA-MB-468 [9])	drug sensitivity score (HCC1937 [10])	drug sensitivity score (HCC1143 [11])	drug sensitivity score (MDA-MB-436 [12])	drug sensitivity score (MCF-10A [13])	drug sensitivity score (CAL-85-1 [14])	drug sensitivity score (BT-474 [15])	drug sensitivity score (CAL-120 [16])
CO[C@@]12[C@H](COC(N)=O)C3=C(C(=O)C(C)=C(N)C3=O)N1C[C@@H]1N[C@@H]12 [Mitomycin C]	0	1.42	0.633	4.87	0	0	0	8.27	0	3.39	0	0	0	10.5	2.91	0	0	0.335	0	27.4	0	1.5	0	0	0	0	0
CCNC(=O)c1noc(-c2cc(C(C)C)c(O)cc2O)c1-c1ccc(CN2CCOCC2)cc1 [NVP-AUY922]	12.4	16.7	17.4	21.8	13.8	14.9	11.2	14.1	12.5	14.8	13.3	16.2	11	15.7	14.1	13	17.8	9.4	3.99	0	0.92	0	0	13.6	9.49	3.93	0.256
Cc1cn(-c2cc(NC(=O)c3ccc(C)c(Nc4nccc(-c5cccnc5)n4)c3)cc(C(F)(F)F)c2)cn1 [Nilotinib]	0	0	0	0	0	0	0	1.04	0	0	0	0	0	6.22	0	0	0	0	0	0	0	0	0	0	0	0	0
CC[C@H](CO)Nc1nc(NCc2ccccc2)c2ncn(C(C)C)c2n1 [Seliciclib]	0	0	0	0	0	0	0	1.15	0	0	0	0	0	2.74	0	0.844	0	0	0	0	0	0	0	0	0	0	0
O=[N+]([O-])c1ccc2c(c1)S(=O)(=O)C=C2 [Stattic]	12.6	8.62	6.75	24.4	15.3	14.8	6.56	20.4	11.9	9.28	14.4	5.13	14	18.1	17.8	9.26	5.46	7.49	7.71	19.8	25	6.3	6.1	19.5	19.7	15.9	2.06
CC(C)n1cnc2c(NCCc3ccc(O)cc3)nc(-c3csc4ccccc34)nc21 [StemRegenin 1]	0.255	0	1.2	0.986	1.53	1.58	0	3.44	0	0.344	0	0	0	0	0	0	0	0	0	0	0	0	0	0	0	1.03	0
O=C(CCCCCCC(=O)Nc1ccccc1)NO [Vorinostat]	10.6	5.14	2.32	8.49	3.4	3.32	4.04	1.14	5.5	0	5.59	1.17	2.53	8.31	4.06	4.8	5.43	3.27	4.43	2.22	0	1.23	0	0	0	2.68	2.58
